Legend:
[1] = Solubility in solvent containing 1,2-pentanediol; format: physicochemical
Method: (§1) Approximately 40 mg each of resveratrol 3-O-α-glucoside, resveratrol (Tokyo Chemical Industry Co., Ltd.), and resveratrol 3-O-β-glucoside (Tokyo Chemical Industry Co., Ltd.) was weighed, approximately 70 mg of a solvent (whose composition is shown in Table 18) containing ethanol (Wako Pure Chemical Industries, Ltd.) was added thereto, and the mixture was soaked in a water bath at 25° C. under light-tight conditions, and incubated for 15 hours with occasional stirring. After 15 hours, each of the samples was filtered through a 0.45 μm centrifugal filter, and then the concentration of each of the components in the filtrate was analyzed using HPLC under the same conditions as those described in Production Example 1 above. The dissolved concentration (w/v %) at 25° C. was thus determined.
The solubility of resveratrol 3-O-α-glucoside was evaluated under the same conditions as those described in Example 18 above, except that a solvent (whose composition is shown in Table 23) containing 1,2-pentanediol (Kankosha Co., Ltd.) was used.

[2] = Solubility in solvent containing dipropylene glycol; format: physicochemical
Method: as §1
The solubility of resveratrol 3-O-α-glucoside was evaluated under the same conditions as those described in Example 18 above, except that a solvent (whose composition is shown in Table 22) containing dipropylene glycol (Asahi Glass Co., Ltd.) was used.

[3] = Absorption when orally ingested: converted resveratrol concentration in plasma; format: in vivo, human
Method: Blood concentrations of resveratrol metabolites when resveratrol 3-O-α-glucoside and resveratrol 3-O-β-glucoside were orally ingested were examined, and the absorption properties of resveratrol 3-O-α-glucoside and resveratrol 3-O-β-glucoside were compared.
To 100 mL of water, 86 mg of resveratrol 3-O-α-glucoside or resveratrol 3-O-β-glucoside (Tokyo Chemical Industry Co., Ltd.) was added, and the mixture was stirred for 1 minute. The resulting solution was orally ingested by a subject at a time. Blood was collected prior to, 30 minutes after, and 1, 2, 3, and 4 hours after the ingestion, and the plasma was separated by centrifugation. The test was performed three times for each of the samples. In order to quantify the amount of resveratrol derivatives in the collected plasma samples, 10 μL of β-glucronidase Type H-2 from Sigma-Aldrich Co. LLC. (glucuronidase activity: 115003 units/mL, sulfatase activity: 556 units/mL; a 5-fold diluted solution in a 100 mM acetate buffer solution (pH 5.5)) was added to 10 μL of the collected plasma, and enzyme treatment was performed at 37° C. for about 18 hours. After the reaction, 80 μL of 60% acetonitrile was added, and subsequently 100 μL of water was further added thereto, and the mixture was stirred. The filtrate obtained by filtering through a membrane (0.45 μm) was subjected to HPLC analysis. A converted resveratrol concentration was determined by converting the concentration of resveratrol derivatives in each of the plasma samples into the concentration of resveratrol, and maximum blood concentrations and areas under the curve (AUCs) 0 to 4 hours after the ingestion were determined.

[4] = Solubility in solvent containing glycerol; format: physicochemical
Method: as §1
The solubility of resveratrol 3-O-α-glucoside was evaluated under the same conditions as those described in Example 18 above, except that a solvent (whose composition is shown in Table 19) containing glycerol (Wako Pure Chemical Industries, Ltd.) was used.

Solubility in water = format: physicochemical
Method: as §1, with “5” for “40”, “1 mL” for “70 mg”, “water” for “a solvent (whose composition is shown in Table 18) containing ethanol (Wako Pure Chemical Industries, Ltd.)”, “20” for “15”, “%) in water” for “%)”

sirtuin 1 gene = assay: Sirtuin 1 gene expression-promoting effect (2); format: cell-based; conditions: normal human epidermal keratinocytes, 0.001 wt %, 33 hours, medium without hydrocortisone; control = 100%
Method: Normal human epidermal keratinocytes were seeded into 12-well culture plates at 5×10^4 cells per well. As the medium, EpiLife KG-2 medium supplemented with insulin, hEGF, hydrocortisone, anti-microbial agents, and BPE was used (basal medium), and the cells were preincubated in 5% CO2 at 37° C. for 48 hours. The medium was removed, and then replaced with a sample medium obtained by removing hydrocortisone from the above-described basal medium, and by supplementing the resulting medium with resveratrol 3-O-α-glucoside to a concentration of 0.001 wt %, and the cells were cultured in 5% CO2 at 37° C. For comparison, the cells were cultured under the same conditions as described above, except that resveratrol 3-O-α-glucoside in the sample medium was replaced by resveratrol 3-O-β-glucoside. After 33 hours of culture, total RNA was extracted from the cells, and the level of expression of the sirtuin 1 gene was quantified by real time PCR. As a control group, cells were cultured without resveratrol 3-O-α-glucoside or resveratrol 3-O-β-glucoside, and total RNA collected from these cells was used. Taking as 100% the level of expression of the sirtuin 1 gene for the control group, a relative ratio of the expression level of the sirtuin 1 gene for the resveratrol 3-O-α-glucoside- or resveratrol 3-O-β-glucoside-supplemented group (SIRT 1 gene expression ratio, %) was determined. […]

Structure (SMILES): OC[C@H]1O[C@H](Oc2cc(O)cc(C=Cc3ccc(O)cc3)c2)[C@H](O)[C@@H](O)[C@@H]1O [Resveratrol 3-O-α-Glucoside, resveratrol 3-O-α-glucoside]
- dissolved concentration [1]: exceeded 20 w/v %
- dissolved concentration [2]: exceeded 30 w/v %
- AUC relative to resveratrol 3-O-β-glucoside ([3]; human, in vivo, po, 86 mg): 2.8 times
- dissolved concentration [4]: exceeded 20 w/v %
- Dissolved Concentration (μg/mL) in Water (Solubility in water; 20 h): 2900 µg/mL
- SIRT 1 Gene Expression Ratio (%) (sirtuin 1 gene): 141%

Structure (SMILES): OC[C@H]1O[C@@H](Oc2cc(O)cc(/C=C/c3ccc(O)cc3)c2)[C@H](O)[C@@H](O)[C@@H]1O [Resveratrol 3-O-β-Glucoside, resveratrol 3-O-β-glucoside]
- Dissolved Concentration (w/v %) at 25° C. ([1]; 1,2-Pentanediol:Water 0:100 (weight ratio)): 0.04 w/v %
- Dissolved Concentration (w/v %) at 25° C. ([1]; 1,2-Pentanediol:Water 10:90 (weight ratio)): 0.2 w/v %
- Dissolved Concentration (w/v %) at 25° C. ([1]; 1,2-Pentanediol:Water 25:75 (weight ratio)): 2.3 w/v %
- Dissolved Concentration (w/v %) at 25° C. ([1]; 1,2-Pentanediol:Water 50:50 (weight ratio)): 7.5 w/v %
- Dissolved Concentration (w/v %) at 25° C. ([1]; 1,2-Pentanediol:Water 75:25 (weight ratio)): 11.3 w/v %
- Dissolved Concentration (w/v %) at 25° C. ([1]; 1,2-Pentanediol:Water 90:10 (weight ratio)): 9.4 w/v %
- Dissolved Concentration (w/v %) at 25° C. ([1]; 1,2-Pentanediol:Water 100:0 (weight ratio)): 4.6 w/v %
- Dissolved Concentration (w/v %) at 25° C. ([2]; Dipropylene Glycol:Water 0:100 (weight ratio)): 0.04 w/v %
- Dissolved Concentration (w/v %) at 25° C. ([2]; Dipropylene Glycol:Water 5:95 (weight ratio)): 0.06 w/v %
- Dissolved Concentration (w/v %) at 25° C. ([2]; Dipropylene Glycol:Water 10:90 (weight ratio)): 0.1 w/v %
- Dissolved Concentration (w/v %) at 25° C. ([2]; Dipropylene Glycol:Water 15:85 (weight ratio)): 0.3 w/v %
- Dissolved Concentration (w/v %) at 25° C. ([2]; Dipropylene Glycol:Water 20:80 (weight ratio)): 0.5 w/v %
- Dissolved Concentration (w/v %) at 25° C. ([2]; Dipropylene Glycol:Water 25:75 (weight ratio)): 0.9 w/v %
- Dissolved Concentration (w/v %) at 25° C. ([2]; Dipropylene Glycol:Water 50:50 (weight ratio)): 11.5 w/v %
- Dissolved Concentration (w/v %) at 25° C. ([2]; Dipropylene Glycol:Water 75:25 (weight ratio)): 26.1 w/v %
- Dissolved Concentration (w/v %) at 25° C. ([2]; Dipropylene Glycol:Water 90:10 (weight ratio)): 23.9 w/v %
- Dissolved Concentration (w/v %) at 25° C. ([2]; Dipropylene Glycol:Water 100:0 (weight ratio)): 15.0 w/v %
- Maximum Plasma Concentration ([3]; 86 mg in 100 mL water orally, one subject, three tests, converted resveratrol concentration after glucuronidase/sulfatase treatment): 282 ng/mL
- Area under the Curve ((mg/L) · Hr) ([3]; 86 mg orally, 0 to 4 hours after ingestion, converted resveratrol concentration): 0.9 (mg/L) · Hr
- Dissolved Concentration (w/v %) at 25° C. ([4]; Glycerol:Water 0:100 (weight ratio)): 0.04 w/v %
- Dissolved Concentration (w/v %) at 25° C. ([4]; Glycerol:Water 10:90 (weight ratio)): 0.05 w/v %
- Dissolved Concentration (w/v %) at 25° C. ([4]; Glycerol:Water 25:75 (weight ratio)): 0.09 w/v %
- Dissolved Concentration (w/v %) at 25° C. ([4]; Glycerol:Water 50:50 (weight ratio)): 0.3 w/v %
- Dissolved Concentration (w/v %) at 25° C. ([4]; Glycerol:Water 75:25 (weight ratio)): 1.1 w/v %
- Dissolved Concentration (w/v %) at 25° C. ([4]; Glycerol:Water 90:10 (weight ratio)): 1.9 w/v %
- Dissolved Concentration (w/v %) at 25° C. ([4]; Glycerol:Water 100:0 (weight ratio)): 3.1 w/v %
- Dissolved Concentration (μg/mL) in Water (Solubility in water; water, 25° C., 20 hours): 370 µg/mL
- SIRT 1 Gene Expression Ratio (%) (sirtuin 1 gene): 120%

— patent US10149809B2, “Skin aging inhibitor and concentrate of resveratrol 3-O-α-glucoside” (priority 2014, dated 2018)
